Like-named read-outs stand apart in the source and are kept apart here.
Assays:
[1] = target: topoisomerase I; set-up: method as in doi:10.1016/S0040-4020(01)96256-8; conditions: read-out: IC50 topoisomerase I inhibiting; cited from earlier work
[2] = target: T1, rat α4β2 nAChR (Rattus norvegicus, UniProt P09483+P12390); test: Two-electrode voltage clamp, ACh-evoked currents in Xenopus oocytes; assay type: cell-based
T1 construct: expressed in transfected cells; host or cells: Xenopus oocytes injected with plasmid DNA (pcDNA 3.1 vector)

[3] = target: T2, α1β3γ2 GABAAR (Mus musculus, UniProt P62812+P63080); test: Two-electrode voltage clamp, GABA-evoked currents in Xenopus oocytes; assay type: cell-based, murine; conditions: 25 μM MG; surmountable by higher GABA concentrations
[4] = target: T2, α1β3γ2 GABAAR; test: Fluorescent α-Ctx competition assay on Neuro2a cells; assay type: binding, murine; set-up: expressed in transfected cells; host or cells: mouse neuroblastoma Neuro2a cells, transient transfection; conditions: 50 μM MG
[5] = target: α4β2 nAChR (Rattus norvegicus, UniProt P09483+P12390); assay type: binding; conditions: test ligand concentrations up to 1 mM
[6] = target: T3, murine muscle nAChR (Mus musculus, UniProt P02716+P04756+P20782); test: Two-electrode voltage clamp, acetylcholine-evoked current in Xenopus oocytes; assay type: cell-based; conditions: for inhibition at 2.5 µM: holding potential −70 mV, read-out: inhibition extent, peak current amplitude
T3 construct: expressed in transfected cells; host or cells: Xenopus oocytes injected with plasmid DNA (pRBG4 vector)

[7] = test system: different types of cells; set-up: method as in doi:10.1016/S0040-4020(01)96256-8; conditions: cited from earlier work
[8] = target: T4, wild-type (WT) muscle nAChR (Mus musculus, UniProt P02716+P04756+P20782); test: Fluorescent detection of cytoplasmic Ca2+ rise in transfected Neuro2a cells (Case12); assay type: cell-based; conditions: 2.5 μM MG, Ca2+ fluorescence
T4 construct: expressed in transfected cells; host or cells: mouse neuroblastoma Neuro2a cells, transient co-transfection with the Case12 calcium sensor

[9] = test system: homopentameric α1 GlyR; set-up: method as in PMID 24686559; conditions: cited from earlier work
[10] = test system: human α7 nAChR; set-up: method as in PMID 24686559; conditions: cited from earlier work
[11] = test system: mice; set-up: method as in doi:10.1016/S0040-4020(01)96256-8; conditions: cited from earlier work
[12] = test system: mice; test: In vivo toxicity in mice (literature); conditions: corresponds to 210 mg/kg
[13] = target: T5, Torpedo californica muscle-type nAChR (Tetronarce californica, UniProt P02710+P02714+P02718); test: Intrinsic tryptophan fluorescence quenching; assay type: binding; conditions: 2 μM MG; λex 280 nm, λem 340 nm; prevented by α-Bgt pre-incubation
T5 construct: from tissue; host or cells: Torpedo californica electric organ membranes
Description: Intrinsic tryptophane fluorescence detection. Electric organ membranes of Torpedo californica at the final concentration of 1 nM of toxin-binding sites in a 20 mM Tris-HCl buffer were mixed with Makaluvamine G (final concentration 2 μM) and the control membranes were pre-incubated with 1 μM αBgt for 30 min. Measurements were done on a Cary Eclipse (Agilent, Santa Clara, CA, USA) spectrofluorimeter with a standard kinetics software (version 1.2) with excitation wavelength 280 nm and emission wavelength 340 nm (both with 5 nm slits). The data were exported to csv files and analyzed in the LibreOffice 6.0 Calc software (The Document Foundation, Berlin, Germany).

[14] = set-up: method as in earlier work; conditions: cited from earlier work
[15] = test system: GABAAR; conditions: cited from earlier work

## Cn1cc2c3c1C(=O)C(N/C=C/c1ccc(O)cc1)=CC3=[N+](C)CC2 [MG, Makaluvamine G]
[1]
  IC50: ~3000 nM
[2]; high micromolar range (25 μM MG, 50 μM acetylcholine)
  inhibition of ACh-evoked currents: only weak inhibition
[2]; reversibility of inhibition, data not shown
  time to recovery of normal current amplitude after washout: 15 to 20 min
[3]
  inhibition of GABA-evoked currents: inhibits
[4]
  inhibition of fluorescent α-Ctx binding: Only partial inhibition
[5]
  inhibition of [3H]-epibatidine binding: partial
[6]; 2.5 μM MG co-applied with 10 μM acetylcholine
  inhibition at 2.5 µM: 27%
[6]; 2.5 μM MG co-applied with 1000 μM acetylcholine
  inhibition at 2.5 µM: 81%
[6]; 2.5 μM MG, 30 μM acetylcholine, −30 to −100 mV, current amplitude and net charge
  dependence of inhibition on membrane potential (open-channel block): No increase in the inhibition
[7]
  concentrations showing cytotoxicity: 1000 to 70000 nM
[8]
  effect on WT receptor dose response to acetylcholine: does not affect
[9]
  inhibition of α1 GlyR: does not inhibit
[10]
  potency at muscle nAChR relative to human α7 nAChR: at least one order of magnitude more potent
[11]
  dose not toxic to mice: up to 210 mg/kg
[12]
  dose not toxic to mice, molar: 629 µmol/kg
[13]
  intrinsic Trp fluorescence quenching: induces a drop of intrinsic tryptophan fluorescence

## COc1cc2c3cc1Oc1cc(ccc1O)C[C@@H]1c4c(cc(OC)c(O)c4Oc4ccc(cc4)C[C@@H]3N(C)CC2)CC[N+]1(C)C [d-tubocurarine]
[14]
  LD50: less than 0.7 μmole/kg
[15]
  affinity at GABAAR: sub-micromolar

## α-cobratoxin
[15]
  affinity at GABAAR: sub-micromolar

Reference: paper PMC5923396 (Marine Drugs, 2018)
